Data reported in PubChem BioAssay (NCI).
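Where inhibition never reached the appropriate level, the endpoint shown equals the highest concentration tested. Otherwise, values were interpolated linearly from a five-concentration, 48-hour dose response in 96-well plates. Abbreviation: GI50, concentration required for 50% inhibition of growth. TGI denotes the concentration required for complete inhibition of growth.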

How the values were obtained:
Test in all cases: DTP human tumour cell line panel, 48 h
NCI-H23 lung = system: NCI-H23 lung
HOP-62 NSCLC = system: HOP-62 NSCLC
UACC-257 melanoma = system: UACC-257 melanoma
A498 renal = system: A498 renal
DU-145 prostate = system: DU-145 prostate
MALME-3M melanoma = system: MALME-3M melanoma
SF-539 CNS = system: SF-539 CNS
CAKI-1 renal = system: CAKI-1 renal
SW-620 colon = system: SW-620 colon
KM12 colon = system: KM12 colon
U251 CNS = system: U251 CNS
BT-549 breast = system: BT-549 breast
LOX IMVI melanoma = system: LOX IMVI melanoma
NCI-H460 lung = system: NCI-H460 lung
SK-MEL-2 melanoma = system: SK-MEL-2 melanoma
PC-3 prostate = system: PC-3 prostate
HL-60(TB) leukemia = system: HL-60(TB) leukemia
NCI-H226 lung = system: NCI-H226 lung
OVCAR-4 ovarian = system: OVCAR-4 ovarian
SF-295 CNS = system: SF-295 CNS
UACC-62 melanoma = system: UACC-62 melanoma
IGROV1 ovarian = system: IGROV1 ovarian
COLO 205 colon = system: COLO 205 colon
TK-10 renal = system: TK-10 renal
OVCAR-5 ovarian = system: OVCAR-5 ovarian
K-562 leukemia = system: K-562 leukemia
HS 578T breast = system: HS 578T breast
T-47D breast = system: T-47D breast
HCT-15 colon = system: HCT-15 colon
UO-31 renal = system: UO-31 renal
SK-MEL-5 melanoma = system: SK-MEL-5 melanoma
MCF7 breast = system: MCF7 breast
SNB-19 CNS = system: SNB-19 CNS
OVCAR-8 ovarian = system: OVCAR-8 ovarian
ACHN renal = system: ACHN renal
NCI-H522 lung = system: NCI-H522 lung
786-0 renal = system: 786-0 renal
A549 NSCLC = system: A549 NSCLC
SF-268 CNS = system: SF-268 CNS
HT29 colon = system: HT29 colon
EKVX NSCLC = system: EKVX NSCLC
SN12C renal = system: SN12C renal
SNB-75 CNS = system: SNB-75 CNS
MDA-MB-231 breast = system: MDA-MB-231 breast
HCT-116 colon = system: HCT-116 colon
SK-OV-3 ovarian = system: SK-OV-3 ovarian
MDA-MB-435 = system: MDA-MB-435
CCRF-CEM leukemia = system: CCRF-CEM leukemia
HCC-2998 colon = system: HCC-2998 colon
RPMI-8226 leukemia = system: RPMI-8226 leukemia
NCI/ADR-RES ovarian = system: NCI/ADR-RES ovarian
M14 melanoma = system: M14 melanoma
SK-MEL-28 melanoma = system: SK-MEL-28 melanoma
OVCAR-3 ovarian = system: OVCAR-3 ovarian
HOP-92 NSCLC = system: HOP-92 NSCLC
MOLT-4 leukemia = system: MOLT-4 leukemia
SR leukemia = system: SR leukemia

`COc1ccc(-c2cnc(NC(=O)CCCCCCNC(=O)C(O)(O)C(F)(F)F)s2)cc1` was tested, and the GI50 (NCI-H23 lung) was 1230 nM, the TGI (NCI-H23 lung) was 8080 nM and the GI50 (HOP-62 NSCLC) was 1140 nM. It also gave a TGI (HOP-62 NSCLC) greater than 30800 nM, a GI50 (UACC-257 melanoma) of 1570 nM and a TGI (UACC-257 melanoma) of 24600 nM. The GI50 (A498 renal) was 288 nM, the TGI (A498 renal) was 1530 nM and the GI50 (DU-145 prostate) was 1030 nM. The TGI (DU-145 prostate) was 7670 nM, the GI50 (MALME-3M melanoma) was 1020 nM and the TGI (MALME-3M melanoma) was 3360 nM. For the same compound, the GI50 (SF-539 CNS) was 1370 nM, the TGI (SF-539 CNS) was greater than 30800 nM and the GI50 (CAKI-1 renal) was 975 nM. The TGI (CAKI-1 renal) was 7450 nM, the GI50 (SW-620 colon) was 623 nM and the TGI (SW-620 colon) was 2360 nM. It also gave a GI50 (KM12 colon) of 1080 nM, a TGI (KM12 colon) of 5480 nM and a GI50 (U251 CNS) of 862 nM. For the same compound, the TGI (U251 CNS) was 3780 nM, the GI50 (BT-549 breast) was 1810 nM and the TGI (BT-549 breast) was 12900 nM. The GI50 (LOX IMVI melanoma) was 678 nM, the TGI (LOX IMVI melanoma) was 1760 nM and the GI50 (NCI-H460 lung) was 735 nM. The TGI (NCI-H460 lung) was 5790 nM, the GI50 (SK-MEL-2 melanoma) was 1010 nM and the TGI (SK-MEL-2 melanoma) was 4490 nM. The GI50 (PC-3 prostate) was 1210 nM, the TGI (PC-3 prostate) was greater than 30800 nM and the GI50 (HL-60(TB) leukemia) was 1400 nM. It also gave a TGI (HL-60(TB) leukemia) greater than 30800 nM, a GI50 (NCI-H226 lung) of 2200 nM and a TGI (NCI-H226 lung) of 12000 nM. It also gave a GI50 (OVCAR-4 ovarian) of 2110 nM, a TGI (OVCAR-4 ovarian) greater than 30800 nM and a GI50 (SF-295 CNS) of 742 nM. It also gave a TGI (SF-295 CNS) of 1820 nM, a GI50 (UACC-62 melanoma) of 662 nM and a TGI (UACC-62 melanoma) of 1880 nM. For the same compound, the GI50 (IGROV1 ovarian) was 987 nM, the TGI (IGROV1 ovarian) was 5310 nM and the GI50 (COLO 205 colon) was 540 nM. For the same compound, the TGI (COLO 205 colon) was 1280 nM, the GI50 (TK-10 renal) was 481 nM and the TGI (TK-10 renal) was greater than 30800 nM. For the same compound, the GI50 (OVCAR-5 ovarian) was 907 nM, the TGI (OVCAR-5 ovarian) was 5500 nM and the GI50 (K-562 leukemia) was 709 nM. For the same compound, the TGI (K-562 leukemia) was greater than 30800 nM, the GI50 (HS 578T breast) was 952 nM and the TGI (HS 578T breast) was 10500 nM. It also gave a GI50 (T-47D breast) of 864 nM, a TGI (T-47D breast) of 3780 nM and a GI50 (HCT-15 colon) of 1600 nM. It also gave a TGI (HCT-15 colon) of 8010 nM, a GI50 (UO-31 renal) of 904 nM and a TGI (UO-31 renal) of 3980 nM. It also gave a GI50 (SK-MEL-5 melanoma) of 921 nM, a TGI (SK-MEL-5 melanoma) of 2860 nM and a GI50 (MCF7 breast) of 1310 nM. It also gave a TGI (MCF7 breast) greater than 30800 nM, a GI50 (SNB-19 CNS) of 1280 nM and a TGI (SNB-19 CNS) of 9440 nM. The GI50 (OVCAR-8 ovarian) was 967 nM, the TGI (OVCAR-8 ovarian) was 6850 nM and the GI50 (ACHN renal) was 1010 nM. For the same compound, the TGI (ACHN renal) was 4190 nM, the GI50 (NCI-H522 lung) was 908 nM and the TGI (NCI-H522 lung) was 4560 nM. The GI50 (786-0 renal) was 1270 nM, the TGI (786-0 renal) was 15100 nM and the GI50 (A549 NSCLC) was 1380 nM. For the same compound, the TGI (A549 NSCLC) was 11500 nM, the GI50 (SF-268 CNS) was 1130 nM and the TGI (SF-268 CNS) was 6260 nM. For the same compound, the GI50 (HT29 colon) was 946 nM, the TGI (HT29 colon) was greater than 30800 nM and the GI50 (EKVX NSCLC) was 1970 nM. The TGI (EKVX NSCLC) was greater than 30800 nM, the GI50 (SN12C renal) was 1210 nM and the TGI (SN12C renal) was 10600 nM. It also gave a GI50 (SNB-75 CNS) of 1760 nM, a TGI (SNB-75 CNS) greater than 30800 nM and a GI50 (MDA-MB-231 breast) of 719 nM. The TGI (MDA-MB-231 breast) was 2500 nM, the GI50 (HCT-116 colon) was 540 nM and the TGI (HCT-116 colon) was 4410 nM. The GI50 (SK-OV-3 ovarian) was 863 nM, the TGI (SK-OV-3 ovarian) was 2270 nM and the GI50 (MDA-MB-435) was 1000 nM. It also gave a TGI (MDA-MB-435) of 10200 nM, a GI50 (CCRF-CEM leukemia) of 1340 nM and a TGI (CCRF-CEM leukemia) greater than 30800 nM. For the same compound, the GI50 (HCC-2998 colon) was 1360 nM, the TGI (HCC-2998 colon) was 4530 nM and the GI50 (RPMI-8226 leukemia) was 857 nM. For the same compound, the TGI (RPMI-8226 leukemia) was greater than 30800 nM, the GI50 (NCI/ADR-RES ovarian) was 1610 nM and the TGI (NCI/ADR-RES ovarian) was 8780 nM. It also gave a GI50 (M14 melanoma) of 1450 nM, a TGI (M14 melanoma) greater than 30800 nM and a GI50 (SK-MEL-28 melanoma) of 1370 nM. The TGI (SK-MEL-28 melanoma) was greater than 30800 nM, the GI50 (OVCAR-3 ovarian) was 635 nM and the TGI (OVCAR-3 ovarian) was 2110 nM. For the same compound, the GI50 (HOP-92 NSCLC) was 561 nM, the TGI (HOP-92 NSCLC) was 2110 nM and the GI50 (MOLT-4 leukemia) was 1100 nM. For the same compound, the TGI (MOLT-4 leukemia) was greater than 30800 nM, the GI50 (SR leukemia) was 601 nM and the TGI (SR leukemia) was greater than 30800 nM.
